Assay results taken from patent US7713960B2, “Inhibition of the Raf/Mek/P-Erk pathway for treating cancer” (University of South Florida, priority 2005, dated 2010).
Counter-ions that a name gives are not always drawn.

Columns and labels:
Assay type in all cases: cell-based, human
SNB-19 cells = assay: Total cellular cAMP measurement, SNB-19
Description: Total cellular cAMP measurement—The measurement of total cellular cAMP was done using a cAMP Biotrak ™ Enzymeimmunoassay (EIA) system (Amersham Biosciences, Piscataway, N.J.) according to the manufacturer's protocol. Briefly, 2000 cells were plated into each well of a 96 well plate. The next day cells were treated with increasing concentrations of ARA-211 or with vehicle for one hour. Alternatively, MDA-MB-231 cells were pre-treated with antagonists to the α1 (Prazosin, Sigma), α2 (Yohimbine, Sigma), β1 (Metoprolol, Sigma), and β2 (ICI 118.551, Sigma) adrenergic receptors at 100 nM for 15 minutes followed by treatment with 10 μM ARA-211 for 45 minutes. Cells were then lysed directly in the wells using the supplied lysis buffer. The lysate was transferred to a 96-well cAMP ELISA plate, and results were quantified using a Wallac Victor 2 plate reader.

SF-539 cells = assay: Anchorage-dependent growth (MTT assay), SF-539
Description: MTT Assay—2000 cells per well were plated into 96 well tissue culture plates, and the cells were allowed to attach overnight at 37° C. with 10% CO2. Cells were then treated with increasing concentrations of ARA-211, or vehicle (DMSO) and incubated for four days. At that time treatment medium was removed and replaced with 100 μl of lmg/ml MTT (Sigma-Aldrich, St. Louis, Mo.) in media and incubated at 37° C., 10% CO2 for 3 hours. After 3 hours the MTT media was removed and replaced with 100 μl/well of DMSO, rocked at room temperature for 5 minutes, then absorbance read at 540 nm on a micro-plate reader.

P-Mek-1 = P-Mek-1 levels (Western blotting), MDA-MB-231
Description: Western Blotting—Treated cell samples were lysed in 30 mM HEPES, 10 mM NaCl, 5 mM MgCl2, 25 mM NaF, 1 mM EGTA, 1% Triton-X-100, 10% Glycerol, 2 mM Sodium orthovanidate, 10 μg/mL aprotinin, 10 μg/mL soybean trypsin inhibitor, 25 μg/mL leupeptin, 2 mM phenylmethylsulfonylfluoride (PMSF), 6.4 mg/mL p-nitrophenylphosphate for 30 minutes at 4° C., and proteins run on SDS-PAGE gels then transferred to nitrocellulose membranes. Membranes were blocked in either 5% milk in PBS, pH 7.4, containing 0.1% Tween-20 (PBS-T) or 1% BSA in TBS, pH 7.5, containing 0.1% Tween-20 (TBS-T). Phospho-STAT3 and phospho-AKT antibodies were diluted in 1% BSA in TBS-T while phospho-c-Raf, phospho-Mek, and phospho-p44/p42 MAPK antibodies (Cell Signaling) were diluted in 5% milk in PBS-T for either 1 hour at room temperature or overnight at 4° C. HRP-conjugated secondary antibodies (Jackson ImmunoResearch, West Grove, Pa.) were diluted in 5% milk in PBS-T or TBS-T at a 1:1000 dilution for one hour at room temperature. Western blots results were visualized using enhanced chemiluminescence. Stripping of the membranes for reblotting was done using stripping buffer (62.5 mM Tris pH 7.6, 2% SDS, 0.7% 2-mercaptoethanol) at 50° C. for 30 minutes.

MDA-MB-231 cells = assay: Alamar Blue proliferation assay, MDA-MB-231; conditions: MDA-MB-231 with CA-Mek; 10 μM, 48 hours
Description: Cell Lines and Transfections—All cell lines used were obtained from American Type Tissue Collection (ATCC), (Manassas, Va.), or from the DCTD Tumor Repository, (Frederick, Md.). Propagation was carried out according to ATCC protocols. Propagation media was obtained from Invitrogen Corporation (Carlsbad, Calif.). DNA transfections were carried out using TransIT-LT1 transfection reagent (Takara Mirus, Madison, Wis.) according to the manufacturer's protocol. Briefly, 4×10^5 MDA-MB-231 cells were grown to approximately 70% confluency in medium supplemented with 10% FBS (Atlanta Biologicals, Atlanta, Ga.) in the absence of antibiotics. For transfection, LT1 was pre-incubated in 200 μl per transfection in Opti-MEM (Invitrogen) for 20 minutes prior to addition of plasmid. […]
Alamar Blue proliferation assay—For proliferation assays using exogenous constitutively activated MEK or the B2AR antagonist ICI-118.551, Alamar Blue metabolism assay used to determine cell viability according to the manufacturers protocol (Biosource, Camarillo, Calif.). […] Media/Alamar Blue was removed from the cells and aliquoted into 96 well plates (100 μl per well) and fluorescence read on a Wallac Victor 2 plate reader at excitation 540 nm, and emission 615 nm.

c-Raf-1 = assay: In vivo kinase assay, intact MDA-MB-231 cells treated, c-Raf-1; conditions: 10 μM
Description: In Vitro Kinase Assays—MDA-MB-231 cells (2×10^6) were lysed for 30 minutes at 4° C. in RIPA-150 buffer (10 mM Tris pH 7.5, 150 mM NaCl, 10% glycerol, 5 mM EDTA, 1% Triton X-100, 0.1% SDS, 100 μM sodium orthovanadate, 1 μM aprotinin, 10 μM leupeptin, 10 μM antipain). Cell debris was pelleted at 13000 rpm for 15 minutes at 4° C. and the lysate was rocked overnight with 10 μg of either c-Raf or MEK antibodies (Santa Cruz Biotechnologies, Santa Cruz, Calif.). 25 μl of protein A/G PLUS agarose (Santa Cruz Biotechnology) was then added and rocked for 4 hours at 4° C. Samples were spun at 2000 rpm for 5 minutes to collect the agarose beads, which were then washed four times with lysis buffer. On the final wash each pellet was divided into 5. […]

cAMP (Fold Induction) (SNB-19 cells): 1.2 ± 0.4 Fold
SMILES: CC(C)(C)NCC(O)c1ccc(O)c(CO)n1 (centres unmarked) [ARA-211, 2-hydroxymethyl-3-hydroxy-6-(1-hydroxy-2-tert-butylaminoethyl) pyridine, dihydrochloride]
Anchorage Dependent Growth (% Inhibition) (SF-539 cells): 55 ± 6.9%
P-Mek-1 levels (P-Mek-1): suppressed
inhibition of tumor growth in cells ectopically expressing constitutively activated Mek-1 (MDA-MB-231 cells): resistant
c-Raf-1 kinase activity, intact cells first treated (c-Raf-1): blocked
